Columns and labels:
barnyardgrass [1] = test: Test A preemergence; format: in vivo, Echinochloa crus-galli
In short: (§1)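 Visual injury scored 0–100 (100 = complete control) against untreated controls about 10 days after treatment in a greenhouse. Test chemicals, formulated with surfactant in non-phytotoxic solvent, were sprayed on soil preemergence or on 2-10 cm, one- to two-leaf plants postemergence.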

pigweed [2] = test: Test A postemergence; format: in vivo, Amaranthus retroflexus
In short: as §1

large (Lg) crabgrass [3] = test: Test A postemergence; format: in vivo, Digitaria sanguinalis
In short: as §1

morningglory [4] = test: Test A preemergence; format: in vivo, Ipomoea spp.
In short: as §1

sedge, umbrella = test: Test B flooded paddy test; format: in vivo, Cyperus difformis; conditions: Flood, 250 g ai/ha; 0 to 100 scale where 0 is no effect and 100 is complete control
In short: (§2)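 Compound added straight to paddy water, with pots kept flooded 3 cm above soil, on plants grown to the 2-leaf stage. Visual scoring 0-100 (100 = complete control) against untreated controls after 13 to 15 greenhouse days.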

corn [5] = test: Test A postemergence; format: in vivo, Zea mays
In short: as §1

wheat [6] = test: Test A preemergence; format: in vivo, Triticum aestivum
In short: as §1

large (Lg) crabgrass [7] = test: Test A preemergence; format: in vivo, Digitaria sanguinalis
In short: as §1

velvetleaf [8] = test: Test A preemergence; format: in vivo, Abutilon theophrasti
In short: as §1

velvetleaf [9] = test: Test A postemergence; format: in vivo, Abutilon theophrasti
In short: as §1

giant foxtail [10] = test: Test A postemergence; format: in vivo, Setaria faberii
In short: as §1

Heteranthera limosa = test: Test B flooded paddy test; format: in vivo; conditions: Flood, 250 g ai/ha; 0 to 100 scale where 0 is no effect and 100 is complete control
Protocol: (§3) Plant species in the flooded paddy test selected from rice (Oryza sativa), sedge, umbrella (small-flower umbrella sedge, Cyperus difformis), (Heteranthera limosa), and barnyardgrass (Echinochloa crus-galli) were grown to the 2-leaf stage for testing. At time of treatment, test pots were flooded to 3 cm above the soil surface, treated by application of test compounds directly to the paddy water, and then maintained at that water depth for the duration of the test. Treated plants and controls were maintained in a greenhouse for 13 to 15 days, after which time all species were compared to controls and visually evaluated. Plant response ratings, summarized in Table B, are based on a scale of 0 to 100 where 0 is no effect and 100 is complete control. A dash (-) response means no test result.

rice = test: Test B flooded paddy test; format: in vivo, Oryza sativa; conditions: Flood, 250 g ai/ha; 0 to 100 scale where 0 is no effect and 100 is complete control
In short: as §2

barnyardgrass [11] = test: Test B flooded paddy test; format: in vivo, Echinochloa crus-galli; conditions: Flood, 250 g ai/ha; 0 to 100 scale where 0 is no effect and 100 is complete control
Protocol: as §3

wheat [12] = test: Test A postemergence; format: in vivo, Triticum aestivum
In short: as §1

pigweed [13] = test: Test A preemergence; format: in vivo, Amaranthus retroflexus
In short: as §1

corn [14] = test: Test A preemergence; format: in vivo, Zea mays
In short: as §1

morningglory [15] = test: Test A postemergence; format: in vivo, Ipomoea spp.
In short: as §1

giant foxtail [16] = test: Test A preemergence; format: in vivo, Setaria faberii
In short: as §1

barnyardgrass [17] = test: Test A postemergence; format: in vivo, Echinochloa crus-galli
In short: as §1

[18] = 125 g ai/ha, 0 to 100 scale where 0 is no effect and 100 is complete control
[19] = 500 g ai/ha, 0 to 100 scale, 0 no effect, 100 complete control, approx. 10 days
[20] = 500 g ai/ha, 0 to 100 scale, 0 no effect, 100 complete control
[21] = 500 g ai/ha, 0 to 100 scale where 0 is no effect and 100 is complete control
[22] = 1000 g ai/ha, 0 to 100 scale, 0 no effect, 100 complete control, approx. 10 days
[23] = 1000 g ai/ha, 0 to 100 scale, 0 no effect, 100 complete control

C=C(C)c1cnn(-c2ccccc2Oc2ncc(Cl)cn2)c1 [Compound 32]
Plant response rating, Barnyardgrass (barnyardgrass [1]; [18]): 0 | Barnyardgrass plant response rating (barnyardgrass [1]; [19]): 60 | Plant response rating, Pigweed (pigweed [2]; [18]): 50 | Plant response rating, Pigweed (pigweed [2]; [20]): 70 | Plant response rating, Crabgrass, Large (large (Lg) crabgrass [3]; [18]): 50 | Plant response rating, Crabgrass, Large (large (Lg) crabgrass [3]; [20]): 50 | Plant response rating, Morningglory (morningglory [4]; [18]): 0 | Morningglory plant response rating (morningglory [4]; [19]): 0 | Plant response rating, Sedge, Umbrella (sedge, umbrella): 0 | Plant response rating, Corn (corn [5]; [18]): 0 | Plant response rating, Corn (corn [5]; [20]): 20 | Plant response rating, Wheat (wheat [6]; [18]): 0 | Wheat plant response rating (wheat [6]; [19]): 0 | Plant response rating, Crabgrass, Large (large (Lg) crabgrass [7]; [18]): 0 | Crabgrass, Large plant response rating (large (Lg) crabgrass [7]; [19]): 60 | Plant response rating, Velvetleaf (velvetleaf [8]; [18]): 10 | Velvetleaf plant response rating (velvetleaf [8]; [19]): 70 | Plant response rating, Velvetleaf (velvetleaf [9]; [18]): 80 | Plant response rating, Velvetleaf (velvetleaf [9]; [20]): 100 | Plant response rating, Foxtail, Giant (giant foxtail [10]; [18]): 0 | Plant response rating, Foxtail, Giant (giant foxtail [10]; [20]): 30 | Plant response rating, Ducksalad (Heteranthera limosa): 0 | Plant response rating, Rice (rice): 15 | Plant response rating, Barnyardgrass (barnyardgrass [11]): 0 | Plant response rating, Wheat (wheat [12]; [18]): 0 | Plant response rating, Wheat (wheat [12]; [20]): 0 | Plant response rating, Pigweed (pigweed [13]; [18]): 0 | Pigweed plant response rating (pigweed [13]; [19]): 40 | Plant response rating, Corn (corn [14]; [18]): 0 | Corn plant response rating (corn [14]; [19]): 0 | Plant response rating, Morningglory (morningglory [15]; [18]): 0 | Plant response rating, Morningglory (morningglory [15]; [20]): 0 | Plant response rating, Foxtail, Giant (giant foxtail [16]; [18]): 0 | Foxtail, Giant plant response rating (giant foxtail [16]; [19]): 70 | Plant response rating, Barnyardgrass (barnyardgrass [17]; [18]): 0 | Plant response rating, Barnyardgrass (barnyardgrass [17]; [20]): 20

N#Cc1cnc(Oc2ccccc2-n2cc(Br)cn2)nc1 [Compound 233]
Barnyardgrass plant response rating (0 to 100 scale, 0 is no effect, 100 is complete control) (barnyardgrass [1]; 125 g ai/ha): 0 | Barnyardgrass plant response rating (barnyardgrass [1]; [21]): 0 | Pigweed plant response rating (pigweed [2]; [18]): 20 | Plant response rating, Pigweed (pigweed [2]; [21]): 50 | Crabgrass, Large plant response rating (large (Lg) crabgrass [3]; [18]): 0 | Plant response rating, Crabgrass, Large (large (Lg) crabgrass [3]; [21]): 10 | Morningglory plant response rating (0 to 100 scale) (morningglory [4]; 125 g ai/ha): 0 | Morningglory plant response rating (morningglory [4]; [21]): 0 | Plant response rating, Sedge, Umbrella (sedge, umbrella): 50 | Corn plant response rating (corn [5]; [18]): 0 | Plant response rating, Corn (corn [5]; [21]): 0 | Wheat plant response rating (0 to 100 scale) (wheat [6]; 125 g ai/ha): 0 | Wheat plant response rating (wheat [6]; [21]): 0 | Crabgrass, Large plant response rating (0 to 100 scale) (large (Lg) crabgrass [7]; 125 g ai/ha): 0 | Crabgrass, Large plant response rating (large (Lg) crabgrass [7]; [21]): 10 | Velvetleaf plant response rating (0 to 100 scale) (velvetleaf [8]; 125 g ai/ha): 0 | Velvetleaf plant response rating (velvetleaf [8]; [21]): 0 | Velvetleaf plant response rating (velvetleaf [9]; [18]): 0 | Plant response rating, Velvetleaf (velvetleaf [9]; [21]): 30 | Foxtail, Giant plant response rating (giant foxtail [10]; [18]): 0 | Plant response rating, Foxtail, Giant (giant foxtail [10]; [21]): 20 | Plant response rating, Ducksalad (Heteranthera limosa): 50 | Plant response rating, Rice (rice): 20 | Plant response rating, Barnyardgrass (barnyardgrass [11]): 10 | Wheat plant response rating (wheat [12]; [18]): 0 | Plant response rating, Wheat (wheat [12]; [21]): 0 | Pigweed plant response rating (0 to 100 scale) (pigweed [13]; 125 g ai/ha): 0 | Pigweed plant response rating (pigweed [13]; [21]): 20 | Corn plant response rating (0 to 100 scale) (corn [14]; 125 g ai/ha): 0 | Corn plant response rating (corn [14]; [21]): 0 | Morningglory plant response rating (morningglory [15]; [18]): 0 | Plant response rating, Morningglory (morningglory [15]; [21]): 0 | Foxtail, Giant plant response rating (0 to 100 scale) (giant foxtail [16]; 125 g ai/ha): 0 | Foxtail, Giant plant response rating (giant foxtail [16]; [21]): 0 | Barnyardgrass plant response rating (barnyardgrass [17]; [18]): 0 | Plant response rating, Barnyardgrass (barnyardgrass [17]; [21]): 20

C=Cc1cnn(-c2ccccc2Oc2ncc(Cl)cn2)c1 [Compound 31]
Plant response rating, Barnyardgrass (barnyardgrass [1]; [18]): 20 | Barnyardgrass plant response rating (barnyardgrass [1]; [19]): 50 | Plant response rating, Pigweed (pigweed [2]; [18]): 40 | Plant response rating, Pigweed (pigweed [2]; [20]): 70 | Plant response rating, Crabgrass, Large (large (Lg) crabgrass [3]; [18]): 50 | Plant response rating, Crabgrass, Large (large (Lg) crabgrass [3]; [20]): 60 | Plant response rating, Morningglory (morningglory [4]; [18]): 0 | Morningglory plant response rating (morningglory [4]; [19]): 0 | Plant response rating, Sedge, Umbrella (sedge, umbrella): 30 | Plant response rating, Corn (corn [5]; [18]): 0 | Plant response rating, Corn (corn [5]; [20]): 20 | Plant response rating, Wheat (wheat [6]; [18]): 0 | Wheat plant response rating (wheat [6]; [19]): 0 | Plant response rating, Crabgrass, Large (large (Lg) crabgrass [7]; [18]): 50 | Crabgrass, Large plant response rating (large (Lg) crabgrass [7]; [19]): 90 | Plant response rating, Velvetleaf (velvetleaf [8]; [18]): 50 | Velvetleaf plant response rating (velvetleaf [8]; [19]): 90 | Plant response rating, Velvetleaf (velvetleaf [9]; [18]): 100 | Plant response rating, Velvetleaf (velvetleaf [9]; [20]): 100 | Plant response rating, Foxtail, Giant (giant foxtail [10]; [18]): 40 | Plant response rating, Foxtail, Giant (giant foxtail [10]; [20]): 50 | Plant response rating, Ducksalad (Heteranthera limosa): 80 | Plant response rating, Rice (rice): 25 | Plant response rating, Barnyardgrass (barnyardgrass [11]): 0 | Plant response rating, Wheat (wheat [12]; [18]): 0 | Plant response rating, Wheat (wheat [12]; [20]): 0 | Plant response rating, Pigweed (pigweed [13]; [18]): 40 | Pigweed plant response rating (pigweed [13]; [19]): 60 | Plant response rating, Corn (corn [14]; [18]): 0 | Corn plant response rating (corn [14]; [19]): 0 | Plant response rating, Morningglory (morningglory [15]; [18]): 0 | Plant response rating, Morningglory (morningglory [15]; [20]): 30 | Plant response rating, Foxtail, Giant (giant foxtail [16]; [18]): 20 | Foxtail, Giant plant response rating (giant foxtail [16]; [19]): 90 | Plant response rating, Barnyardgrass (barnyardgrass [17]; [18]): 10 | Plant response rating, Barnyardgrass (barnyardgrass [17]; [20]): 50

CC(=O)Oc1cccc(Oc2ncc(Cl)cn2)c1-n1cc(Cl)cn1 [Compound 216]
Barnyardgrass plant response rating (barnyardgrass [1]; [22]): 30 | Plant response rating, Pigweed (pigweed [2]; [23]): 100 | Plant response rating, Crabgrass, Large (large (Lg) crabgrass [3]; [23]): 40 | Morningglory plant response rating (morningglory [4]; [22]): 0 | Plant response rating, Sedge, Umbrella (sedge, umbrella): 0 | Plant response rating, Corn (corn [5]; [23]): 0 | Wheat plant response rating (wheat [6]; [22]): 0 | Crabgrass, Large plant response rating (large (Lg) crabgrass [7]; [22]): 70 | Velvetleaf plant response rating (velvetleaf [8]; [22]): 30 | Plant response rating, Velvetleaf (velvetleaf [9]; [23]): 100 | Plant response rating, Foxtail, Giant (giant foxtail [10]; [23]): 30 | Plant response rating, Ducksalad (Heteranthera limosa): 0 | Plant response rating, Rice (rice): 0 | Plant response rating, Barnyardgrass (barnyardgrass [11]): 0 | Plant response rating, Wheat (wheat [12]; [23]): 0 | Pigweed plant response rating (pigweed [13]; [22]): 100 | Corn plant response rating (corn [14]; [22]): 0 | Plant response rating, Morningglory (morningglory [15]; [23]): 40 | Foxtail, Giant plant response rating (giant foxtail [16]; [22]): 40 | Plant response rating, Barnyardgrass (barnyardgrass [17]; [23]): 0
